This note sets out measurements from ChEMBL document CHEMBL3244201, “Synthesis and specific pressor activity of [1-aspartic acid,5-valine,9-serine]angiotensin I ("fowl angiotensin I")” (1977).

Holding throughout (format): functional
Assay [1] is filed under the species Rattus norvegicus. The assay is described as follows: Pressor activity in rat assessed as weight basis relative to mammalian [Ile5]angiotensin 2.
The species named for assay [2] is Rattus norvegicus. The assay is described as follows: Pressor activity in rat assessed as weight basis relative to mammalian [Val5]angiotensin 2.
Assay [3] is filed under the species Rattus norvegicus. The assay is described as follows: Pressor activity in rat assessed as weight basis relative to mammalian [Ile5]angiotensin 1.
For assay [4], the species on record is Rattus norvegicus. Put plainly: Pressor activity in rat assessed as molar basis relative to mammalian [Val5]angiotensin 2.
For assay [5], the species on record is Rattus norvegicus. Put plainly: Pressor activity in rat assessed as molar basis relative to mammalian [Ile5]angiotensin 2.
Assay [6] is filed under the species Rattus norvegicus. The assay is described as follows: Pressor activity in rat assessed as molar basis relative to mammalian [Val5]angiotensin 1.
Assay [7] is filed under the species Rattus norvegicus. Put plainly: Pressor activity in ganglion-blocked vagotomized rat assessed as weight basis relative to mammalian [Ile5]angiotensin 2.
Assay [8] is filed under the species Rattus norvegicus. Put plainly: Pressor activity in rat assessed as weight basis relative to mammalian [Val5]angiotensin 1.
Assay [9] is filed under the species Rattus norvegicus. The assay is described as follows: Pressor activity in rat assessed as molar basis relative to mammalian [Ile5]angiotensin 1.

As to `CC[C@H](C)[C@H](NC(=O)[C@H](Cc1ccc(O)cc1)NC(=O)[C@@H](NC(=O)[C@H](CCCNC(=N)N)NC(=O)[C@@H](N)CC(=O)O)C(C)C)C(=O)N[C@@H](Cc1cnc[nH]1)C(=O)N1CCC[C@H]1C(=O)N[C@@H](Cc1ccccc1)C(=O)O` [ANGIOTENSIN II], the Activity in the assay filed under Rattus norvegicus [1] stood at 100%; in the assay listed under Rattus norvegicus [2], 73.5%.
The like results for H-DRVYIHPFHL-OH were, in that order, 58.6% and 43.1%.
The like results for H-DRVYVHPF-OH [[Val5] - ANGIOTENSIN II] were, in that order, 136% and 100%.
On to H-DRVYVHPFHL-OH, for which the Activity in the assay listed under Rattus norvegicus [1] stood at 51.5%; in the assay filed under Rattus norvegicus [2], 37.8%.
H-DRVYVHPFSL-OH: the Activity is listed as 160.4% in the assay listed under Rattus norvegicus [3]; 85.1% in the assay listed under Rattus norvegicus [4]; 114.4% in the assay filed under Rattus norvegicus [5]; 94.1% in the assay filed under Rattus norvegicus [1]; 180.8% in the assay filed under Rattus norvegicus [6]; 91.2% in the assay filed under Rattus norvegicus [7]. For the same molecule, the Activity in the assay filed under Rattus norvegicus [2] came to 69.2%; in the assay filed under Rattus norvegicus [8], 182.8%; in the assay filed under Rattus norvegicus [9], 157%.
